In paper PMC4498814, “Genetic Evidence for Function of the bHLH-PAS Protein Gce/Met As a Juvenile Hormone Receptor” (PLoS Genetics, 2015):
Read-outs that look alike come from different tables or passages of the source.

Columns and labels:
[1] = biological target: T1, Gce (germ cell-expressed) (Drosophila melanogaster, UniProt Q9VXW7); assay: competition radioligand binding against [3H]JH III, dextran-coated charcoal assay
T1 construct: amino acids 1–689, translated in vitro
T1 sequence (Q9VXW7 269-959): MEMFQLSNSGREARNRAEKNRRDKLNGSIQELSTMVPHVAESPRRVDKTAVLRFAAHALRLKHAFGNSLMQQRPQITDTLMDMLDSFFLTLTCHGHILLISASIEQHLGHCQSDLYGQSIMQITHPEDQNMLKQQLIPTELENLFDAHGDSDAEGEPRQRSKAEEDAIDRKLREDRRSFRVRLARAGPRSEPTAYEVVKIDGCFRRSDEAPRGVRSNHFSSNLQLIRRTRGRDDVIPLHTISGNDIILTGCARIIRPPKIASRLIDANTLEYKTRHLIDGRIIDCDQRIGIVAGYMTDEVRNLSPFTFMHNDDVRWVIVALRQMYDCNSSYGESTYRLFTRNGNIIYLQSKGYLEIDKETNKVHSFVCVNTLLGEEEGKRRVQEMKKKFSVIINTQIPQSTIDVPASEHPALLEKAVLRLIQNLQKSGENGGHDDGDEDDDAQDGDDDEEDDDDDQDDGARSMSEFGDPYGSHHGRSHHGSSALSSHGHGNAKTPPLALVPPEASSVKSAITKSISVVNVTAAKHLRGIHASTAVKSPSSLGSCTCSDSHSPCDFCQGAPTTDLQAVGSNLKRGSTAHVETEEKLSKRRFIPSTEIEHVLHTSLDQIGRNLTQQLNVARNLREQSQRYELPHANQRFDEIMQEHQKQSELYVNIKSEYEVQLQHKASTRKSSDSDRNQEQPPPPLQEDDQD

[2] = biological target: T1, Gce (germ cell-expressed); assay: [3H]JH III radioligand saturation binding, dextran-coated charcoal assay
[3] = biological target: T2, Met (Methoprene-tolerant) (Drosophila melanogaster, UniProt Q9VYW2); assay: JHRE-luc reporter in S2 cells with endogenous Met and Gce depleted; pocket mutants inactive; type: cell-based
T2 construct: amino acids 1–716, FLAG-tagged, expressed in S2 cells
T2 sequence (Q9VYW2 1-716): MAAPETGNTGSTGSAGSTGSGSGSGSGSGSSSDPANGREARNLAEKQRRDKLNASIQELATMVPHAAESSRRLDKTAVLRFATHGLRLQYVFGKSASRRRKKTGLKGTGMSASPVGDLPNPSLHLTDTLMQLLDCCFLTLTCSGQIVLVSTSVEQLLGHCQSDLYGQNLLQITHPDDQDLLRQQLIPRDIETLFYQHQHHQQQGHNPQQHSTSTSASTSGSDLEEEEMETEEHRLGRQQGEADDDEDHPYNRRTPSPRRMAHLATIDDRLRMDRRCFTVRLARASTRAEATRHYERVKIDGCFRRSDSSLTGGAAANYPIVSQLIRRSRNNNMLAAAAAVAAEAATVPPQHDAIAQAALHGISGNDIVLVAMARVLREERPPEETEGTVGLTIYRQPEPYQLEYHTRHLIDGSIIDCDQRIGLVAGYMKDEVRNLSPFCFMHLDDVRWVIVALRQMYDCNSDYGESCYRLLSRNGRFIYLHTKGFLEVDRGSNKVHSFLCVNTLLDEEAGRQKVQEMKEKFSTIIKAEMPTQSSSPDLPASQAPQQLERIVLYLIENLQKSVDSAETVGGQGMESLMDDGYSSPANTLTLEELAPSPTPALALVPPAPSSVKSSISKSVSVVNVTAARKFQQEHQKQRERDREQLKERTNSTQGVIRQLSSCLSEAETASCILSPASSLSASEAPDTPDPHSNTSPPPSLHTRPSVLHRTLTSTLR

CC(C)=CCC/C(C)=C/CC/C(C)=C/CO [farnesol]
Ki ([1]; read-out: Ki): 8.1 ± 2.4 µM

COC(=O)/C=C(\C)CC/C=C(\C)CCC=C(C)C [methyl farnesoate]
Ki ([1]; read-out: Ki): 0.0879 ± 0.0222 µM

CC(COc1ccc(Oc2ccccc2)cc1)Oc1ccccn1 (stereo not drawn) [pyriproxyfen]
Ki [1]: 0.0057 ± 0.0028 µM

COC(=O)/C=C(\C)CC/C=C(\C)CCC1OC1(C)C (racemic) [JH III]
Kd [2]: 0.0193 ± 0.0045 µM
JHRE-luc reporter activity [3]: Like Gce, Met but not its mutated versions, mediated induction of JHRE-luc by JH III (Fig 3C)

COC(C)(C)CCC[C@H](C)C/C=C/C(C)=C/C(=O)OC(C)C (racemic) [methoprene]
Ki [1]: 0.0458 ± 0.0289 µM
